Laboratory results: US9801918B2, “Methods of treatment using extracts of Anisomeles heyneana” (Council of Scientific & Industrial Research, priority 2011, dated 2017)
Values after ≈ are worked out from the molar mass of the structure shown.

What was measured:
[1] = tested on: human monocytic leukaemia Thp-1 cell lines; assay: Anti proliferative activity-MTT cell proliferation assay on human Thp-1 cell line; assay type: cell-based; details: for inhibition at 100 µg/mL: Homo sapiens, THP-1, 72 h; for inhibition at 100 µg/mL / % Inhibition on Thp-1 cell line at 100 μg/ml: 100 μg/ml, 72 h, MTT, average±standard deviation, triplicate
M. tuberculosis = assay: Anti-mycobacterial activity (inhibition of growth of M. tuberculosis); assay type: cell-based; details: concentration exhibiting 90% inhibition against growth of M. tuberculosis, 'Not active' at 100 μg/ml; for IC90: Mycobacterium tuberculosis, read-out: IC90 value determined against M. tuberculosis

Compound	inhibition at 100 µg/mL [1]	% Inhibition on Thp-1 cell line at 100 μg/ml [1]	anti proliferative activity (in words) ([1]; qualitative statement)	IC90 value determined against M. tuberculosis (M. tuberculosis)	IC90 (M. tuberculosis)
CC(=O)O[C@H]1C(=O)[C@@]2(C)[C@H]([C@H](OC(=O)c3ccccc3)[C@]3(O)C[C@H](OC(=O)[C@H](O)[C@@H](NC(=O)c4ccccc4)c4ccccc4)C(C)=C1C3(C)C)[C@]1(OC(C)=O)CO[C@@H]1C[C@@H]2O [Paclitaxel, reference compound]	61%	–	–	–	–
C[C@]12CCC[C@](C)(C(=O)O)[C@@H]1CC[C@@]13C[C@@H](CC[C@@H]12)[C@@](O)(CO)C3 [Compound 2, phyllocladan-16α,17-dihydroxy-19-oic acid]	59 to 97%	59.02 ± 0.8725%	comparable to well known drug, paclitaxel	Not active^c	–
C=C1C(=O)O[C@H]2/C=C(\C)C[C@@H]3C=C(CC/C=C(\C)CC[C@H]12)C(=O)O3 [Compound 1, (1R,3E,5S,9R,12E)-3,12-Dimethyl-8-methylene-6,18-dioxatricyclo[14.2.1.05,9]nonadeca-3,12,16(19)-triene-7,17-dione]	–	96.4 ± 0.4592%	–	–	6.53 µg/mL (≈ 19.9 µM)
NNC(=O)c1ccncc1 [Isoniazid, reference compound]	–	–	–	–	0.05 ± 0.003 µg/mL (≈ 0.365 µM)
